This is an account of results in PMC6630910 (Pharmaceuticals, 2019).

Data set [1] deals with P-I type metalloproteinase Batx-I (Bothrops atrox, UniProt P0DJE1). Briefly: biochemical.
The next data set has as its system PLA2 from snake venoms. The conditions noted are these: same methodology as this paper; read-out: IC50 (PLA2 inhibition); cited from earlier work.

P-I type metalloproteinase Batx-I, sequence (P0DJE1 whole entry, looked up): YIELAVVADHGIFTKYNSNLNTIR

On to `CCOC(=O)CSC(=O)c1cccc([N+](=O)[O-])c1` [II, Ethyl 2-((3-nitrobenzoyl)thio)acetate], for which the melting point came out at 44.5 °C. This molecule also had an IC50 in data set [1] of 2770 µM.
Turning to `CCOC(=O)CSC(=O)c1ccc([N+](=O)[O-])cc1` [III, Ethyl 2-((4-nitrobenzoyl)thio)acetate], the melting point was determined as 56.2 °C. In data set [1], inhibition was half-maximal at 1880 µM (IC50).
Take `O=C1c2c(O)cc(O)cc2O[C@H](c2ccc(O)cc2)[C@H]1c1c(O)cc(O)c2c(=O)cc(-c3ccc(O)c(O)c3)oc12` [Morelloflavone]: the IC50 with PLA2 from snake venoms is 380 µM.
As to `COc1cc(O)c2c(c1)O[C@H](c1ccccc1)CC2=O` [Pinostrobin], the IC50 in the data set on PLA2 from snake venoms was 1850 µM.
Take `CCOC(=O)CSC(=O)c1ccc(Cl)cc1` [Compound I, Ethyl 2-((4-chlorobenzoyl)thio)acetate]: the melting point turned out to be 55.6 °C. Also, in data set [1] (read-out: Batx-I proteolytic activity still observed), the activity at 2000 µM was 70%.
